From patent publication US20250122183A1 (Pfizer Inc., priority 2023, published 2025)

Legend:
Format in all cases: biochemical
[1] = biological target: KAT6A Full length enzyme (Homo sapiens (Human), UniProt Q92794); assay: KAT6A assay (SAMDI-MS acetylation of H3 1-21 peptide); details: Morrison equation fit; replicate number in parentheses; read-out: KAT6A Ki (nM) (replicate number)
[2] = biological target: KAT7+JADE1+EAF6+ING5 4 protein complex (Homo sapiens (Human), UniProt O95251); assay: KAT7 JADE1 assay (SAMDI-MS acetylation of H3 1-21 peptide); details: Morrison equation fit; replicate number in parentheses; read-out: KAT7 JADE1 Ki (nM) (replicate number)
[3] = biological target: KAT7+BRPF1+EAF6+ING5 4 protein complex (Homo sapiens (Human), UniProt O95251); assay: KAT7 BRPF1 assay (SAMDI-MS acetylation of H3 1-21 peptide); details: Morrison equation fit; replicate number in parentheses
[4] = biological target: KAT8 Full length enzyme (Homo sapiens (Human), UniProt Q9H7Z6); assay: KAT8 assay (SAMDI-MS acetylation of H3 1-21 peptide); details: Morrison equation fit; replicate number in parentheses; read-out: KAT8 Ki (nM) (replicate number)
Sequence of KAT8 Full length enzyme (Q9H7Z6 whole entry): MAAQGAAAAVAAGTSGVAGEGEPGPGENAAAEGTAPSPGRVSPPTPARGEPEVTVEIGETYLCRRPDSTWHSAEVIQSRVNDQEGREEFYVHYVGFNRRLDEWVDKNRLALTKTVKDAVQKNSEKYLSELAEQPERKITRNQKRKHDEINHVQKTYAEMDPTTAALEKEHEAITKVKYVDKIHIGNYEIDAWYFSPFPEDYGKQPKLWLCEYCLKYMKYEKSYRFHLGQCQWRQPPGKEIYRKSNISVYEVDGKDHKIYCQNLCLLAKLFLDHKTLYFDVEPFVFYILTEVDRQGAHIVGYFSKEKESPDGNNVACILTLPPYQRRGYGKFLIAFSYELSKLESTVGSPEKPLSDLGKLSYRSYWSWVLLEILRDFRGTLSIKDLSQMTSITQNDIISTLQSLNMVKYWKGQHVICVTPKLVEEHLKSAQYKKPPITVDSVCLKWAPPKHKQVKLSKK

[5] = biological target: KAT5 Full length enzyme (Homo sapiens (Human), UniProt Q92993); assay: KAT5 assay (SAMDI-MS acetylation of H4 1-21 peptide); details: Morrison equation fit; replicate number in parentheses; read-out: KAT5 Ki (nM) (replicate number)
Sequence of KAT5 Full length enzyme (Q92993 whole entry): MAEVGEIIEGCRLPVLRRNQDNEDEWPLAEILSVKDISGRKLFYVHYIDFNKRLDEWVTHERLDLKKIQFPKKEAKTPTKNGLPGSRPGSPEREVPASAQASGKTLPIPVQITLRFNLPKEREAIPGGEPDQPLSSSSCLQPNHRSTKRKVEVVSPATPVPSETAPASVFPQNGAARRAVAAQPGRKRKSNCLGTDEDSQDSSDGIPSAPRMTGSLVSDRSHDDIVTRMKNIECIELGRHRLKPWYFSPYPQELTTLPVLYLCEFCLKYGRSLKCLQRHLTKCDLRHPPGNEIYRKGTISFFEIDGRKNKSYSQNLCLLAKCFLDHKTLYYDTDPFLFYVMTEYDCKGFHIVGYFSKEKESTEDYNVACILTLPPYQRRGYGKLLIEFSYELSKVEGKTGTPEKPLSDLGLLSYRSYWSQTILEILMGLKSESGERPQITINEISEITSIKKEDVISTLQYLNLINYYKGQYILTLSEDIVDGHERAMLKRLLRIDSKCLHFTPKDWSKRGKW

[6] = biological target: KAT7+BRPF2+EAF6+ING5 4 protein complex (Homo sapiens (Human), UniProt O95251); assay: KAT7 BRPF2 assay (SAMDI-MS acetylation of H3 1-21 peptide); details: Morrison equation fit; replicate number in parentheses; read-out: KAT7 BRPF2 Ki (nM) (replicate number)

Sequence of KAT6A Full length enzyme (Q92794 other isoform, or with tags, fused parts or gaps): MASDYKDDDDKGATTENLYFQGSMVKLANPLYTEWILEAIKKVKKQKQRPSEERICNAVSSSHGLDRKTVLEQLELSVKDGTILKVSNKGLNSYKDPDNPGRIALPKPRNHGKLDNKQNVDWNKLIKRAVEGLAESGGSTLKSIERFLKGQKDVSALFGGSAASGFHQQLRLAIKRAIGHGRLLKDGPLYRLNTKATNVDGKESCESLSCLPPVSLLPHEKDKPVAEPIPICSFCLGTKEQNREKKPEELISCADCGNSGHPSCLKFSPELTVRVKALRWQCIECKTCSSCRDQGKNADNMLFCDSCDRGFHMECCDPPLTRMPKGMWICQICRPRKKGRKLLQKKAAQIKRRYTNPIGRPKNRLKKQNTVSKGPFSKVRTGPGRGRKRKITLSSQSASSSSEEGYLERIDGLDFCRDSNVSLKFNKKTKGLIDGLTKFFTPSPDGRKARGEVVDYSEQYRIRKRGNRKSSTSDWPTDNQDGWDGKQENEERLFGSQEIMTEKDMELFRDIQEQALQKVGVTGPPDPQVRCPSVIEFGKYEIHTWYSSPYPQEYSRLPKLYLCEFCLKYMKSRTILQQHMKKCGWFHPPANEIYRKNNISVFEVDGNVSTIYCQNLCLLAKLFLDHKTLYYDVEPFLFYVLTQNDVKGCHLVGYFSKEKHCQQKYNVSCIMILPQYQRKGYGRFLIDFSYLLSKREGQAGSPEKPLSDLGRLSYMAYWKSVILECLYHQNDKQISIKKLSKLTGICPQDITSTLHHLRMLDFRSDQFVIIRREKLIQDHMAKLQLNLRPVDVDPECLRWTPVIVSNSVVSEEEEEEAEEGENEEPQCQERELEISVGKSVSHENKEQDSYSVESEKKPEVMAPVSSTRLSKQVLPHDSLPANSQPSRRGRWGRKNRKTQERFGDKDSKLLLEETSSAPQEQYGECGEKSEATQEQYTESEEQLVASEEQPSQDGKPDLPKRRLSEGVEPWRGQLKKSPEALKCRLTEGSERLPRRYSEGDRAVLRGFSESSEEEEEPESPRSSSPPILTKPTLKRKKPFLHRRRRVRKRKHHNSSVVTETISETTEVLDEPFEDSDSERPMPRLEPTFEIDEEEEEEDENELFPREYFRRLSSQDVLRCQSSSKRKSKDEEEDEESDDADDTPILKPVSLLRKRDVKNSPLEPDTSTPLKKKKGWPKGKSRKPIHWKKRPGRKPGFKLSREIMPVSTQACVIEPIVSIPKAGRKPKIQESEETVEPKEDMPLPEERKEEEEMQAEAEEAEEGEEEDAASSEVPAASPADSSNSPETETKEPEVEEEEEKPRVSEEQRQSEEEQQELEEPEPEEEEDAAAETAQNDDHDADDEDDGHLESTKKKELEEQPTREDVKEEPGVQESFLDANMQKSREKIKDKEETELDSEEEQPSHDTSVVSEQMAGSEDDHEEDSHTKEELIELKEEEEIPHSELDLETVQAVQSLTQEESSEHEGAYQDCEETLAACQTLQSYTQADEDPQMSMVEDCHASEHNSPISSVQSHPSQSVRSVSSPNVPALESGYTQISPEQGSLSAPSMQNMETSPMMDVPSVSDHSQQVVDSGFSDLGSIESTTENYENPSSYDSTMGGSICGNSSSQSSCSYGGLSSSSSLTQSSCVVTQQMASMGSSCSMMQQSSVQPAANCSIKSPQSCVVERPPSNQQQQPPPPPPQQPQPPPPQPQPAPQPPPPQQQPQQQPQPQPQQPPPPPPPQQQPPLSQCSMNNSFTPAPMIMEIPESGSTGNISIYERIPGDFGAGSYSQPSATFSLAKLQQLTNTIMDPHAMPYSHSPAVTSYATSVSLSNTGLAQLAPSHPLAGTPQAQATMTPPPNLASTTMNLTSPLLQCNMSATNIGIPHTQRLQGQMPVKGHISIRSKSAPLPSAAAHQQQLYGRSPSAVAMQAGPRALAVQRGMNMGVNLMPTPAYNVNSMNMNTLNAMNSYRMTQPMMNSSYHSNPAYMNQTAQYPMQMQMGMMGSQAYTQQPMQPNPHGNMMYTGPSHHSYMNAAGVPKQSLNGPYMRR

Row | Compound | Ki [1] [nM] | Ki [2] [nM] | Ki [3] [nM] | Ki [4] [nM] | Ki [5] [nM] | Ki [6] [nM]
1 | COc1cc2c(NS(=O)(=O)c3c(OC)cccc3OC)noc2cc1Nc1ccn(C)n1 [Example 04, 2,6-Dimethoxy-N-{5-methoxy-6-[(1-methyl-1H-pyrazol-3-yl)amino]-1,2-benzoxazol-3-yl}benzene-1-sulfonamide] | 0.7 | 251 | 67.2 | 1230 | 367 | 57.2
2 | COc1cc2c(NS(=O)(=O)c3c(OC)cc([C@H]4COCCO4)cc3OC)noc2cc1Nc1cc(C2CC2)[nH]n1 [Example 146] | 0.9 | 3.2 | 2.4 | 865 | 31.4 | 1.7
3 | COc1cc2c(NS(=O)(=O)c3c(OC)cccc3OC)noc2cc1Nc1ncn(C)n1 [Example 35, 2,6-dimethoxy-N-{5-methoxy-6-[(1-methyl-1H-1,2,4-triazol-3-yl)amino]-1,2-benzoxazol-3-yl}benzene-1-sulfonamide] | 3 | 527 | 48.3 | 9110 | 1760 | 156
4 | COc1cc2c(NS(=O)(=O)c3cc(C)ccc3OC)noc2cc1Nc1cc[nH]n1 [Example 24, 2-methoxy-N-{5-methoxy-6-[(1H-pyrazol-3-yl)amino]-1,2-benzoxazol-3-yl}-5-methylbenzene-1-sulfonamide] | 0.9 | 285 | 88.5 | 440 | 236 | 182
5 | CCn1cc(Nc2cc3onc(NS(=O)(=O)c4c(OC)cccc4OC)c3cc2OC)nn1 [Example 42, N-{6-[(1-ethyl-1H-1,2,3-triazol-4-yl)amino]-5-methoxy-1,2-benzoxazol-3-yl}-2,6-dimethoxybenzene-1-sulfonamide] | 10.7 | 316 | 26.7 | > 16300 | 7120 | 30.8
